Laboratory results published in patent US11214803B2, “Modulators of YAP1 expression” (Ionis Pharmaceuticals, Inc., priority 2019, dated 2022).
Strand notation (5' to 3'): a small letter for the sugar, then the base; units joined by * are phosphorothioate-linked, units joined directly phosphodiester-linked; [ ] holds rarer units or linkages, { } end groups; capitals alone tell only the bases. k = constrained ethyl (cEt); [5mC] = 5-methylcytosine; d = 2'-deoxy (DNA); m = 2'-O-methyl

Tested on: Yap1 mRNA
Assay: Dose-dependent inhibition of human Yap1 in SNU-449 cells (Example 9, RTS36584)
Assay type: cell-based
Settings: free uptake; for % UTC (Yap1 mRNA): approximately 48 hours; for IC50: linear regression on a log/linear plot
Procedure, shortened: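 Read-out was Yap1 mRNA (primer-probe RTS36584) normalised to total RNA by RIBOGREEN, given as % of untreated cells, with IC50 fitted by linear regression of log/linear data. Oligonucleotides were dosed by free uptake to SNU-449 cells, 10,000/well, for ~48 h.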

Row | Substance | % UTC (Yap1 mRNA) (31.3 nM) | % UTC (Yap1 mRNA) (125.0 nM) | % UTC (Yap1 mRNA) (500.0 nM) | % UTC (Yap1 mRNA) (2000.00 nM) | IC50
1 | 1198917 (k[5mC]*kA*d[5mC]*dT*dT*dT*dT*dA*d[5mC]*dA*dT*kT*dA*kG*dG*kA; antisense) [compound 1198917] | 81 % UTC | 37 % UTC | 12 % UTC | 6 % UTC | 100 nM
2 | 1198918 (kG*k[5mC]*dA*d[5mC]*dT*dT*dT*dT*dA*d[5mC]*dA*kT*dT*kA*dG*kG) [compound 1198918] | 60 % UTC | 33 % UTC | 13 % UTC | 9 % UTC | 50 nM
3 | 1198935 (kG*kA*dT*dT*dT*dA*dG*dG*dA*dT*dG*k[5mC]*dA*kT*dG*kG; antisense) [compound 1198935] | 50 % UTC | 46 % UTC | 23 % UTC | 11 % UTC | 40 nM
4 | 1198958 (kT*kG*dT*dA*dT*dG*dT*d[5mC]*dA*dG*dA*kA*dG*kA*dG*kT; antisense) [compound 1198958] | 68 % UTC | 39 % UTC | 16 % UTC | 5 % UTC | 100 nM
5 | 1198959 (kA*kG*dT*dG*dT*dA*dT*dG*dT*d[5mC]*dA*kG*dA*kA*dG*kA; antisense) [compound 1198959] | 62 % UTC | 28 % UTC | 8 % UTC | 2 % UTC | 40 nM
6 | 1198960 (kA*kA*dG*dT*dG*dT*dA*dT*dG*dT*d[5mC]*kA*dG*kA*dA*kG; antisense) [compound 1198960] | 77 % UTC | 35 % UTC | 8 % UTC | 2 % UTC | 100 nM
7 | 1198961 (kA*kA*dA*dG*dT*dG*dT*dA*dT*dG*dT*k[5mC]*dA*kG*dA*kA; antisense) [compound 1198961] | 77 % UTC | 35 % UTC | 11 % UTC | 3 % UTC | 100 nM
8 | 1200784 (kT*kG*kT*d[5mC]*dT*mC*dA*dT*dG*d[5mC]*d[5mC]*dT*dT*kA*kT*kA; antisense) [compound 1200784] | 70 % UTC | 51 % UTC | 26 % UTC | 12 % UTC | 100 nM
9 | 1200785 (kA*kT*kT*dG*dT*mC*dT*d[5mC]*dA*dT*dG*d[5mC]*d[5mC]*kT*kT*kA; antisense) [compound 1200785] | 98 % UTC | 73 % UTC | 42 % UTC | 24 % UTC | 400 nM
10 | 1200788 (kG*kA*kA*dA*dT*mU*dG*dT*d[5mC]*dT*d[5mC]*dA*dT*kG*k[5mC]*k[5mC]) [compound 1200788] | 61 % UTC | 38 % UTC | 19 % UTC | 9 % UTC | 100 nM
11 | 1200789 (G_{ks}G_{ks}A_{ks}A_{ds}A_{ds}U_{ys}T_{ds}G_{ds}T_{ds}^{m}C_{ds}T_{ds}^{m}C_{ds}A_{ds}T_{ks}G_{ks}^{m}C_{k}; as printed in the source, key not given here) [compound 1200789] | 60 % UTC | 32 % UTC | 15 % UTC | 5 % UTC | 50 nM
12 | 1200794 (kA*kG*kA*dG*dT*mA*dT*dG*dT*dG*dG*d[5mC]*dA*kA*kT*kA; antisense) [compound 1200794] | 85 % UTC | 59 % UTC | 31 % UTC | 13 % UTC | 200 nM
13 | 1200796 (kT*kT*kA*dG*dA*mG*dT*dA*dT*dG*dT*dG*dG*k[5mC]*kA*kA; antisense) [compound 1200796] | 69 % UTC | 47 % UTC | 25 % UTC | 12 % UTC | 100 nM
14 | 1200797 (kA*kT*kT*dA*dG*mA*dG*dT*dA*dT*dG*dT*dG*kG*k[5mC]*kA; antisense) [compound 1200797] | 84 % UTC | 52 % UTC | 23 % UTC | 11 % UTC | 200 nM
15 | 1200798 (kT*kA*kT*dT*dA*mG*dA*dG*dT*dA*dT*dG*dT*kG*kG*k[5mC]; antisense) [compound 1200798] | 77 % UTC | 44 % UTC | 17 % UTC | 7 % UTC | 100 nM
16 | 1200803 (kG*kG*kT*dA*dT*mA*dA*d[5mC]*dT*dG*dG*dG*d[5mC]*kA*kA*kA; antisense) [compound 1200803] | 72 % UTC | 52 % UTC | 34 % UTC | 18 % UTC | 200 nM
17 | 1200806 (kT*kG*kA*dG*dG*mU*dA*dT*dA*dA*d[5mC]*dT*dG*kG*kG*k[5mC]; antisense) [compound 1200806] | 91 % UTC | 54 % UTC | 34 % UTC | 18 % UTC | 200 nM
18 | 1200820 (kG*kG*kA*dA*dG*mA*dT*d[5mC]*dT*dG*dA*dA*dA*k[5mC]*kT*k[5mC]; antisense) [compound 1200820] | 104 % UTC | 69 % UTC | 36 % UTC | 17 % UTC | 300 nM
19 | 1200858 (kA*kA*kG*dT*dG*mU*dA*dT*dG*dT*d[5mC]*dA*dG*kA*kA*kG; antisense) [compound 1200858] | 71 % UTC | 39 % UTC | 14 % UTC | 4 % UTC | 100 nM
